Assay results as given in patent US20070020193A1, “Dronabinol compositions and methods for using same” (priority 2005, published 2007).

Experiments:
[1] = Example 1 single rising dose inhaled delta-9-THC study: plasma pharmacokinetics
Method: A randomized, double blind, placebo controlled, three way crossover, single rising dose human clinical study in two sequential groups (Groups I and II) of nine young healthy male subjects (18-45 years of age and body mass index (BMI) of 20-26 kg/m^2) of a metered dose inhalation composition according to one embodiment the present invention was conducted. Each subject received two ascending single doses of inhaled delta-9-THC and one single dose of inhaled placebo according to a three-way crossover balanced incomplete block design. The administered composition is detailed in Table 1. Composition I provides 0.3 mg per actuation, while Composition II provides 1.2 mg per actuation.
Each sequential dose level or period was separated by a washout period of two weeks, during which an interim safety and pharmacokinetic analysis was performed. A third group (Group III) of nine elderly healthy male and female subjects (65-80 years old and BMI 18-30 kg/m^2) was added after completion of the sixth study period to participate in a single treatment period. […] Five dose levels were evaluated: 0.3 mg, 1.2 mg, and 2.4 mg in Group I, 3.6 mg, 7.2 mg, and 9.6 mg in Group II, and 3.6 mg in Group III. Subjects were confined to the study center from the day prior to dosing until the 48 hour blood sample. Subjects returned to the center for 72, 96 and 120 hour pharmacokinetic samples. Various pharmacokinetic and pharmacodynamic measurements and sampling were taken according to the Assessment Flow Charts in FIG. 1 and FIG. 2. Safety was measured by monitoring adverse events, physical examination, clinical laboratory and pulmonary function tests, vital signs, 12 lead ECG, and telemetry.
Safety, pharmacokinetic and pharmacodynamic variables were estimated. Plasma concentrations of delta-9-THC (THC), 11-hydroxy-tetrahydrocanabinol (11-OH-THC) and delta-9-tetrahydrocannbinol-carboxylic acid (THC-COOH) were determined for pharmacokinetic analysis.
(§1) Whole blood samples were collected according to the assessment flowchart in EDTA tubes through venepuncture or indwelling catheter. Samples were immediately placed on ice and subsequently centrifuged within 30 minutes at 1,500 g for 10 minutes. Plasma was transferred into a 5 ml screw cap polypropylene tube, stoppered and stored at below minus 20° C. until transfer to the analytical laboratory for analysis. […] The measurement ranges were 0.05-30 ng/ml for delta-9-THC, 0.04-30 ng/ml for 11-OH-THC, and 0.25-10 ng/ml for THC-COOH.
Number of subjects, mean, standard deviation, coefficient variable (%) and geometric mean were calculated for all pharmacokinetic parameters.
For Example 1: A mixed ANOVA model with group and dose fixed effect and subject within group by dose as random effect was performed on the logarithms of the dose normalized pharmacokinetic parameters AUC, AUC0-t and Cmax. The overall treatment effect was tested by conventional F-test with Satterthwaites correction. Dose proportionality was tested using Helmert Contrasts and Reverse Helmert Contrasts. The within and between subject coefficient of variances were calculated from the estimated covariance parameters. Per dose level geometric means with 90% confidence interval were calculated for the dose-normalized values from the least squared means analysis outcomes. The difference between young and elderly subjects was explored using a one-way ANOVA.

[2] = Example 2 multiple rising dose inhaled delta-9-THC study: plasma pharmacokinetics
Method: A randomized, double-blind, placebo-controlled, multiple rising dose safety, tolerability, pharmacokinetic and pharmacodynamic study to assess two dose levels of inhaled delta-9-THC was conducted. Dose levels were studied in ascending order. Two consecutive groups (n=9/group) of healthy subjects were studied (Groups I and II). […] There was a lapse of at least 10 days between the groups for interim safety and pharmacokinetic analysis. Two dose levels were studied in ascending order. […] Subjects in each treatment Group (I or II) received single and multiple doses of inhaled delta-9-THC according to the following schedule:
For both dose levels, the first and the last dose of study drug was given under fasted conditions. Subjects were confined to the study site from the evening of Day −2 (Day 1 is the day of administration of the first dose of study drug) until the 120-hour blood sample following the final dose of study drug, resulting in an 18-day confinement period for subjects in Group I and a 25-day confinement period for Group II. Between the completion of Group I and the start of Group II, an interim safety and pharmacokinetic analysis was performed. Based on the results of the interim analyses, the dose level for investigation in Group II was determined.
Two MDI dosage strengths were used corresponding to the same formulations used in Example 1: one delivering 0.3 mg delta-9-THC (or placebo) per actuation and one delivering 1.2 mg delta-9-THC (or placebo) per actuation. The MDI consisted of a pressurized (via propellants) container and a metered-dose valve. The propellants provided the necessary force to expel the drug, and also acted as a solvent and diluent. The canister unit was provided within a mouthpiece (oral adapter), to expel an exact amount of drug, in the proper particle size distribution, upon each actuation. Two basic formulations containing 0.3 and 1.2 mg of delta-9-THC per 50 μL were developed with propellant 1,1,1,2 tetrafluoroethane 134a (HFA 134a), and ethanol as solvent. The formulations were made in accordance with the composition used in Example 1.
as §1
For Example 2: The statistical analysis encompassed an exploratory analysis of the single and multiple dose pharmacokinetics and dose proportionality of two dose levels of inhaled delta-9-THC in healthy subjects. Descriptive statistics included number of subjects, mean, standard deviation, coefficient of variation (%) and geometric mean for all pharmacokinetic parameters.
The exploratory analysis was performed on the logarithms of the dose-normalized pharmacokinetic parameters AUC(0-inf), AUC(0-t), AUC(0-τ) and Cmax. Dose proportionality was tested both at single dose and at multiple dose (steady state) by comparing the dose groups for all pharmacokinetic parameters by an analysis of variance with dose as fixed effect.
Dose proportionality was tested by the contrast between the dose groups. For this contrast on the logarithmic scale, p-values were given. After anti-logarithmic transformation, the resultant ratios of geometric means and 90% confidence intervals were given.
Accumulation was tested by comparing the steady state values for AUC(0-τ) with the single dose values for AUC(0-τ) by a mixed model analysis of variance with dose and day (with levels single dose and steady state) as fixed effects and subject within dose as random effect.

Compound: CCCCCc1cc(O)c2c(c1)OC(C)(C)C1CCC(CO)=CC21 (stereo not shown) [11-OH-THC, 11-hydroxy-tetrahydrocanabinol]
- Cmax and AUC versus dose ([1]; 7.2 and 9.6 mg doses): less than proportional increase
- Cmax and AUC versus dose ([1]; Groups I and II, doses from 0.3-3.6 mg): dose-related increase
- Cmax ([1]; plasma, after 2.4 mg of delta-9-THC administered by MDI (FIGS. 6 and 7)): 0.77 ng/mL
- achievement of steady state ([2]; 1.2 mg delta-9-THC three times daily): apparently reached after six days of dosing
- Cmax, Geometric Mean (Range) ([2]; 1.2 mg m.d. (three times daily), Day 12, Group I): 0.54 (0.26-1.26) ng/mL
- AUC(0-8), Arithmetic Mean (SD) ([2]; 1.2 mg m.d., Day 12, Group I): 2.07 (0.99) ng · h/mL
- AUC(0-8), Geometric Mean (Range) ([2]; 1.2 mg m.d., Day 12, Group I): 1.89 (1.13-3.48) ng · h/mL
- Cmax, Arithmetic Mean (SD) ([2]; 1.2 mg m.d., Day 12, Group I): 0.61 (0.36) ng/mL
- tmax, Arithmetic Mean (SD) ([2]; 1.2 mg m.d., Day 12, Group I): 0.48 (0.36) h
- tmax, median (range) ([2]; 1.2 mg m.d., Day 12, Group I): 0.42 (0.17-1.00) h
- t½, Arithmetic Mean (SD) ([2]; 1.2 mg m.d., Day 12, Group I): 14.9 (6.08) h
- t½, Geometric Mean (Range) ([2]; 1.2 mg m.d., Day 12, Group I): 13.9 (7.41-25.2) h
- AUC(0-8), Arithmetic Mean (SD) ([2]; 1.2 mg s.d., Day 1): 1.50 (0.88) ng · h/mL
- AUC(0-8), Geometric Mean (Range) ([2]; 1.2 mg s.d., Day 1): 1.26 (0.41-2.66) ng · h/mL
- AUC(0-inf), Arithmetic Mean (SD) ([2]; 1.2 mg s.d., Day 1): 1.93 (1.22) ng · h/mL
- AUC(0-inf), Geometric Mean (Range) ([2]; 1.2 mg s.d., Day 1): 1.56 (0.49-3.39) ng · h/mL
- tmax, Arithmetic Mean (SD) ([2]; 1.2 mg s.d., Day 1): 0.48 (0.75) h
- tmax, median (range) ([2]; 1.2 mg s.d., Day 1): 0.17 (0.17-2.00) h
- t½, Arithmetic Mean (SD) ([2]; 1.2 mg s.d., Day 1): 4.19 (1.67) h
- t½, Geometric Mean (Range) ([2]; 1.2 mg s.d., Day 1): 3.91 (2.55-6.01) h
- Cmax, Arithmetic Mean (SD) ([2]; 1.2 mg s.d., Day 1, plasma): 0.86 (0.57) ng/mL
- Cmax, Geometric Mean (Range) ([2]; 1.2 mg s.d., Day 1, plasma): 0.63 (0.10-1.55) ng/mL
- Cmax, Geometric Mean (Range) ([2]; 3.6 mg m.d. (three times daily), Day 19, Group II): 2.87 (1.27-6.97) ng/mL
- AUC(0-8), Arithmetic Mean (SD) ([2]; 3.6 mg m.d., Day 19, Group II): 10.1 (6.13) ng · h/mL
- AUC(0-8), Geometric Mean (Range) ([2]; 3.6 mg m.d., Day 19, Group II): 8.69 (4.06-19.8) ng · h/mL
- Cmax, Arithmetic Mean (SD) ([2]; 3.6 mg m.d., Day 19, Group II): 3.40 (2.17) ng/mL
- tmax, Arithmetic Mean (SD) ([2]; 3.6 mg m.d., Day 19, Group II): 0.27 (0.20) h
- tmax, median (range) ([2]; 3.6 mg m.d., Day 19, Group II): 0.17 (0.17-0.67) h
- t½, Arithmetic Mean (SD) ([2]; 3.6 mg m.d., Day 19, Group II): 57.3 (37.9) h
- t½, Geometric Mean (Range) ([2]; 3.6 mg m.d., Day 19, Group II): 39.5 (5.65-94.2) h
- AUC(0-8), Arithmetic Mean (SD) ([2]; 3.6 mg s.d., Day 1): 5.15 (3.04) ng · h/mL
- AUC(0-8), Geometric Mean (Range) ([2]; 3.6 mg s.d., Day 1): 4.44 (2.22-9.46) ng · h/mL
- AUC(0-inf), Arithmetic Mean (SD) ([2]; 3.6 mg s.d., Day 1): 6.82 (3.98) ng · h/mL
- AUC(0-inf), Geometric Mean (Range) ([2]; 3.6 mg s.d., Day 1): 5.86 (3.03-11.6) ng · h/mL
- tmax, Arithmetic Mean (SD) ([2]; 3.6 mg s.d., Day 1): 0.18 (0.01) h
- tmax, median (range) ([2]; 3.6 mg s.d., Day 1): 0.17 (0.17-0.20) h
- t½, Arithmetic Mean (SD) ([2]; 3.6 mg s.d., Day 1): 5.98 (2.91) h
- t½, Geometric Mean (Range) ([2]; 3.6 mg s.d., Day 1): 5.44 (2.96-11.0) h
- Cmax, Arithmetic Mean (SD) ([2]; 3.6 mg s.d., Day 1, plasma): 2.21 (1.37) ng/mL
- Cmax, Geometric Mean (Range) ([2]; 3.6 mg s.d., Day 1, plasma): 1.91 (1.12-4.38) ng/mL
- achievement of steady state ([2]; 3.6-mg dose level three times daily): achieved after seven or eight days of dosing
- accumulation during multiple dosing ([2]; 8-hours dosing interval): accumulation occurred during multiple dosing
- Ratio AUC(0-8) m.d./AUC(0-8) s.d. (Accumulation factor), Mean ([2]; Group I, 1.2 mg): 1.59
- Ratio AUC(0-8) m.d./AUC(0-inf) s.d. (Linearity), Mean ([2]; Group I, 1.2 mg): 1.30
- Ratio AUC(0-8) m.d./AUC(0-8) s.d. (Accumulation factor), Mean ([2]; Group II, 3.6 mg): 2.10
- Ratio AUC(0-8) m.d./AUC(0-inf) s.d. (Linearity), Mean ([2]; Group II, 3.6 mg): 1.55
- dose proportionality: geometric mean ratio (3.6 mg:1.2 mg) of dose-normalized AUC(0-8) (90% confidence interval) ([2]; Multiple dose): 1.53 (0.87-2.69)
- dose proportionality: geometric mean ratio (3.6 mg:1.2 mg) of dose-normalized Cmax (90% confidence interval) ([2]; Multiple dose): 1.79 (0.95-3.36)
- dose proportionality: geometric mean ratio (3.6 mg:1.2 mg) of dose-normalized AUC(0-8) (90% confidence interval) ([2]; Single dose): 1.18 (0.60-2.33)
- dose proportionality: geometric mean ratio (3.6 mg:1.2 mg) of dose-normalized AUC(0-inf) (90% confidence interval) ([2]; Single dose): 1.25 (0.61-2.57)
- dose proportionality: geometric mean ratio (3.6 mg:1.2 mg) of dose-normalized AUC(0-t) (90% confidence interval) ([2]; Single dose): 1.43 (0.64-3.20)
- dose proportionality: geometric mean ratio (3.6 mg:1.2 mg) of dose-normalized Cmax (90% confidence interval) ([2]; Single dose): 1.01 (0.42-2.42)
- Cmax, fold lower compared to the parent compound ([2]; after multiple dosing): ~13 fold
- exposure compared to the parent drug (AUC(0-8)) ([2]; after multiple dosing): approximately two-fold lower
- Cmax, fold lower compared to the parent compound ([2]; after single dosing): approximately 25 fold
- dose proportionality of pharmacokinetic parameters ([2]; after single or multiple dose administration): not found to deviate significantly
- plasma concentration-time curve, elimination profile ([2]; both dose levels): at least a bi-phasic elimination profile
- time of peak plasma concentration ([2]; both dose levels, post-dose): between 10 minutes and 2 hours post-dose
- exposure compared to the parent drug (AUC(0-inf)) ([2]; following single dose administration): approximately four-fold lower
- Cmax and AUC values versus dose ([2]; single and multiple dose administration, 1.2 and 3.6 mg): Dose-related increases
- Terminal elimination half-lives (summary estimate) ([2]; summary, best estimated after multiple dosing): ~40 h
